# Source: ChEMBL document CHEMBL4261501, “Design, synthesis and biological evaluation of imidazopyridine-propenone conjugates as potent tubulin inhibitors” (Medchemcomm, 2017)
# Calls of active or inactive are those of the source. The calls are words filed in the database; no cut-off is given here.
# Columns and labels:
# MCF7 = experiment: cells; conditions: Homo sapiens, MCF7, 48 h
# Description: Cytotoxicity against human MCF7 cells after 48 hrs by MTT assay
# HeLa = experiment: cells; conditions: Homo sapiens, 48 h
# Description: Cytotoxicity against human HeLa cells after 48 hrs by MTT assay
# A549 [1] = experiment: cells; conditions: Homo sapiens, A549, 48 h
# Description: Cytotoxicity against human A549 cells after 48 hrs by MTT assay
# DU-145 = experiment: Cytotoxicity against human DU145 cells after 48 hrs by MTT assay; type: functional, cell-based; conditions: DU-145, 48 h
# A549 [2] = experiment: Induction of apoptosis in human A549 cells assessed as late apoptotic cells at 1 uM after 48 hrs by Annexin V-FITC/propidium iodide staining based flow cytometry (reference value: 3.83%); type: functional
# A549 [3] = experiment: Cell cycle arrest in human A549 cells assessed as accumulation at G2/M phase at 1 uM after 48 hrs by propidium iodide staining based flow cytometry (reference value: 7.4%); type: functional
# A549 [4] = experiment: Cell cycle arrest in human A549 cells assessed as accumulation at G0/G1 phase at 1 uM after 48 hrs by propidium iodide staining based flow cytometry (reference value: 90.52%); type: functional
# A549 [5] = experiment: Induction of mitochondrial membrane potential loss in human A549 cells assessed as collapse of the mitochondrial membrane potential at 1 uM after 48 hrs by JC1 staining based flow cytomtery (reference value: 3.5%); type: functional
# A549 [6] = experiment: Induction of apoptosis in human A549 cells assessed as live cells at 1 uM after 48 hrs by Annexin V-FITC/propidium iodide staining based flow cytometry (reference value: 93.97%); type: functional
# A549 [7] = experiment: Disruption of microtubule organization in human A549 cells at 0.5 uM after 48 hrs by fluorescence microscopic analysis; type: cell-based
# A549 [8] = experiment: Induction of mitochondrial membrane potential loss in human A549 cells assessed as intact mitochondrial membrane at 1 uM after 48 hrs by JC1 staining based flow cytomtery (reference value: 96.3%); type: functional
# A549 [9] = experiment: Cell cycle arrest in human A549 cells assessed as accumulation at sub-G1 phase at 1 uM after 48 hrs by propidium iodide staining based flow cytometry (reference value: 1.11%); type: functional
# A549 [10] = experiment: Cell cycle arrest in human A549 cells assessed as accumulation at S phase at 1 uM after 48 hrs by propidium iodide staining based flow cytometry (reference value: 1.92%); type: functional
# A549 [11] = experiment: Induction of apoptosis in human A549 cells assessed as early apoptotic cells at 1 uM after 48 hrs by Annexin V-FITC/propidium iodide staining based flow cytometry (reference value: 1.03%); type: functional
# Tubulin (Homo sapiens) = Tubulin (Homo sapiens) (UniProt P68371+Q9H4B7+P0DPH7+P68366+Q13509+Q71U36+P04350+Q3ZCM7+P07437+P68363+Q9BQE3+Q6PEY2+Q13885+Q9BVA1+Q9BUF5); experiment: Inhibition of tubulin polymerization (unknown origin) at 3 uM after 1 hr by fluorescence assay relative to control; type: protein-complex assay
# A549 [12] = experiment: Induction of apoptosis in human A549 cells assessed as necrotic cells at 1 uM after 48 hrs by Annexin V-FITC/propidium iodide staining based flow cytometry (reference value: 1.17%); type: functional
# A549 [13] = experiment: Cell cycle arrest in human A549 cells assessed as accumulation at G2/M phase at 0.5 uM after 48 hrs by propidium iodide staining based flow cytometry (reference value: 7.4%); type: functional
# A549 [14] = experiment: Induction of apoptosis in human A549 cells assessed as formation of apoptotic bodies at 0.5 uM after 48 hrs by Hoechst 33258 staining based fluorescence microscopic analysis; type: functional, cell-based
# Tubulin = experiment: Inhibition of tubulin polymerization (unknown origin) after 1 hr by fluorescence assay; type: protein-complex assay, Homo sapiens
# A549 [15] = experiment: Induction of mitochondrial membrane potential loss in human A549 cells assessed as collapse of the mitochondrial membrane potential at 0.5 uM after 48 hrs by JC1 staining based flow cytomtery (reference value: 3.5%); type: functional
# A549 [16] = experiment: Induction of apoptosis in human A549 cells assessed as late apoptotic cells at 0.5 uM after 48 hrs by Annexin V-FITC/propidium iodide staining based flow cytometry (reference value: 3.83%); type: functional
# A549 [17] = experiment: Cell cycle arrest in human A549 cells assessed as accumulation at sub-G1 phase at 0.5 uM after 48 hrs by propidium iodide staining based flow cytometry (reference value: 1.11%); type: functional
# A549 [18] = experiment: Induction of apoptosis in human A549 cells assessed as necrotic cells at 0.5 uM after 48 hrs by Annexin V-FITC/propidium iodide staining based flow cytometry (reference value: 1.17%); type: functional
# A549 [19] = experiment: Induction of apoptosis in human A549 cells assessed as nuclear fragmentation at 0.5 uM after 48 hrs by Hoechst 33258 staining based fluorescence microscopic analysis; type: functional, cell-based
# A549 [20] = experiment: Induction of apoptosis in human A549 cells assessed as cytoplasmic condensation at 0.5 uM after 48 hrs by Hoechst 33258 staining based fluorescence microscopic analysis; type: functional, cell-based
# A549 [21] = experiment: Induction of apoptosis in human A549 cells assessed as live cells at 0.5 uM after 48 hrs by Annexin V-FITC/propidium iodide staining based flow cytometry (reference value: 93.97%); type: functional
# A549 [22] = experiment: Induction of mitochondrial membrane potential loss in human A549 cells assessed as intact mitochondrial membrane at 0.5 uM after 48 hrs by JC1 staining based flow cytomtery (reference value: 96.3%); type: functional
# A549 [23] = experiment: Cell cycle arrest in human A549 cells assessed as accumulation at G0/G1 phase at 0.5 uM after 48 hrs by propidium iodide staining based flow cytometry (reference value: 90.52%); type: functional
# A549 [24] = experiment: Cell cycle arrest in human A549 cells assessed as accumulation at S phase at 0.5 uM after 48 hrs by propidium iodide staining based flow cytometry (reference value: 1.92%); type: functional
# A549 [25] = experiment: Induction of apoptosis in human A549 cells assessed as early apoptotic cells at 0.5 uM after 48 hrs by Annexin V-FITC/propidium iodide staining based flow cytometry (reference value: 1.03%); type: functional
smiles,measurement,setting,value
COc1ccc(-c2nc3ccccn3c2C(=O)/C=C\Nc2ccc(Br)cc2)cc1,IC50,MCF7,9.83 µM
same,IC50,HeLa,4.54 µM
same,IC50,A549 [1],1.35 µM
same,IC50,DU-145,1.45 µM
O=C(/C=C\Nc1cnc2ccccc2c1)c1c(-c2ccc(Cl)cc2)nc2ccccn12,IC50,MCF7,18.9 µM
same,IC50,HeLa,3.71 µM
same,IC50,A549 [1],2.88 µM
same,IC50,DU-145,4.17 µM
COC(=O)Nc1nc2cc(C(=O)c3cccs3)ccc2[nH]1 [NOCODAZOLE],Activity,A549 [2],16.2 - 16.23%
same,Activity,A549 [3],29.68%
same,IC50,MCF7,1.09 µM
same,Activity,A549 [4],66.92%
same,Activity,A549 [5],22.6%
same,IC50,HeLa,1.61 µM
same,Activity,A549 [6],51.48 - 51.5%
same,Activity,A549 [7],Active
same,Activity,A549 [8],73.5%
same,Activity,A549 [9],0.79%
same,Activity,A549 [10],4.55%
same,Activity,A549 [11],31.19 - 31.2%
same,inhibition,Tubulin (Homo sapiens),66.8%
same,IC50,A549 [1],1.39 µM
same,Activity,A549 [12],1.1 - 1.11%
same,IC50,DU-145,1.26 µM
O=C(/C=C\Nc1ccc2[nH]ccc2c1)c1c(-c2ccc(Cl)cc2)nc2ccccn12,IC50,MCF7,7.12 µM
same,IC50,HeLa,3.24 µM
same,IC50,A549 [1],1.01 µM
same,IC50,DU-145,1.29 µM
COc1ccc(N/C=C\C(=O)c2c(-c3ccccc3)nc3ccccn23)cc1,IC50,MCF7,7.61 µM
same,IC50,HeLa,14.9 µM
same,IC50,A549 [1],1.57 µM
same,IC50,DU-145,2.19 µM
COc1cc(N/C=C\C(=O)c2c(-c3ccc(Cl)cc3)nc3ccccn23)cc(OC)c1,IC50,MCF7,13.6 µM
same,IC50,HeLa,14.6 µM
same,IC50,A549 [1],9.9 µM
same,IC50,DU-145,12 µM
COc1cc(N/C=C\C(=O)c2c(-c3ccccc3)nc3ccccn23)cc(OC)c1,IC50,MCF7,10.2 µM
same,IC50,HeLa,3.09 µM
same,IC50,A549 [1],2.24 µM
same,IC50,DU-145,2.92 µM
COc1ccc(-c2nc3ccccn3c2C(=O)/C=C\Nc2ccc3[nH]ccc3c2)cc1,IC50,MCF7,18.9 µM
same,IC50,HeLa,13.6 µM
same,IC50,A549 [1],11 µM
same,IC50,DU-145,11.3 µM
O=C(/C=C\Nc1ccc(Br)cc1)c1c(-c2ccccc2)nc2ccccn12,IC50,MCF7,8.67 µM
same,IC50,HeLa,2.04 µM
same,IC50,A549 [1],1.35 µM
same,IC50,DU-145,1.82 µM
COc1ccc(N/C=C\C(=O)c2c(-c3ccc(Cl)cc3)nc3ccccn23)cc1,IC50,MCF7,16.3 µM
same,IC50,HeLa,11.8 µM
same,IC50,A549 [1],6.46 µM
same,IC50,DU-145,10.8 µM
COc1ccc(-c2nc3ccccn3c2C(=O)/C=C\Nc2ccc3cc[nH]c3c2)cc1,IC50,MCF7,19.4 µM
same,IC50,HeLa,15.3 µM
same,IC50,A549 [1],8.8 µM
same,IC50,DU-145,10.7 µM
O=C(/C=C\Nc1ccc2ncccc2c1)c1c(-c2ccc(Cl)cc2)nc2ccccn12,IC50,MCF7,22.8 µM
same,IC50,HeLa,16.4 µM
same,IC50,A549 [1],13 µM
same,IC50,DU-145,13.6 µM
O=C(/C=C\Nc1ccc2cc[nH]c2c1)c1c(-c2ccc(Cl)cc2)nc2ccccn12,IC50,MCF7,9.6 µM
same,IC50,HeLa,10.9 µM
same,IC50,A549 [1],2.29 µM
same,IC50,DU-145,2.63 µM
O=C(/C=C\Nc1ccc2ncccc2c1)c1c(-c2ccccc2)nc2ccccn12,Activity,A549 [13],15.69%
same,Activity,A549 [14],Active
same,IC50,Tubulin,1.82 µM
same,Activity,A549 [2],18.5 - 18.52%
same,Activity,A549 [3],30.5%
same,IC50,MCF7,1.81 µM
same,Activity,A549 [4],66.32%
same,Activity,A549 [5],31.7%
same,IC50,HeLa,1.22 µM
same,Activity,A549 [6],45.4 - 45.42%
same,Activity,A549 [7],Active
same,Activity,A549 [15],22.5%
same,Activity,A549 [16],11.35 - 11.4%
same,Activity,A549 [8],60.8%
same,Activity,A549 [17],0.5%
same,Activity,A549 [9],0.91%
same,Activity,A549 [18],0.75 - 0.8%
same,Activity,A549 [19],Active
same,Activity,A549 [10],4.28%
same,Activity,A549 [11],34.99 - 35%
same,Activity,A549 [20],Active
same,Activity,A549 [21],64.98 - 65%
same,inhibition,Tubulin (Homo sapiens),68.2%
same,Activity,A549 [22],73.5%
same,IC50,A549 [1],0.861 µM
same,Activity,A549 [12],1.07 - 1.1%
same,IC50,DU-145,1.08 µM
same,Activity,A549 [23],82.37%
same,Activity,A549 [24],2.77%
same,Activity,A549 [25],22.9 - 22.92%
COc1ccc(-c2nc3ccccn3c2C(=O)/C=C\Nc2cnc3ccccc3c2)cc1,IC50,MCF7,15 µM
same,IC50,HeLa,9.44 µM
same,IC50,A549 [1],1.05 µM
same,IC50,DU-145,5.28 µM
COc1ccc(-c2nc3ccccn3c2C(=O)/C=C\Nc2cc(OC)cc(OC)c2)cc1,IC50,MCF7,14.9 µM
same,IC50,HeLa,4.57 µM
same,IC50,A549 [1],4.47 µM
same,IC50,DU-145,6.26 µM
COc1ccc(-c2nc3ccccn3c2C(=O)/C=C\Nc2ccc3ncccc3c2)cc1,IC50,MCF7,11.6 µM
same,IC50,HeLa,4.85 µM
same,IC50,A549 [1],1.21 µM
same,IC50,DU-145,4.72 µM
COc1ccc(-c2nc3ccccn3c2C(=O)/C=C\Nc2ccc(F)cc2)cc1,IC50,MCF7,13 µM
same,IC50,HeLa,11 µM
same,IC50,A549 [1],3.25 µM
same,IC50,DU-145,6.13 µM
COc1cc(N/C=C\C(=O)c2c(-c3ccc(Cl)cc3)nc3ccccn23)cc(OC)c1OC,IC50,MCF7,3.39 µM
same,IC50,HeLa,3.02 µM
same,IC50,A549 [1],1.14 µM
same,IC50,DU-145,3.25 µM
O=C(/C=C\Nc1ccc(Br)cc1)c1c(-c2ccc(Cl)cc2)nc2ccccn12,Activity,A549 [13],14.4%
same,Activity,A549 [14],Active
same,IC50,Tubulin,1.93 µM
same,Activity,A549 [2],18.06 - 18.1%
same,Activity,A549 [3],29.84%
same,IC50,MCF7,2.69 µM
same,Activity,A549 [4],65.94%
same,Activity,A549 [5],30.1%
same,IC50,HeLa,1.48 µM
same,Activity,A549 [6],46.59 - 46.6%
same,Activity,A549 [7],Active
same,Activity,A549 [15],20.3%
same,Activity,A549 [16],9.9 - 9.94%
same,Activity,A549 [8],63.9%
same,Activity,A549 [17],0.66%
same,Activity,A549 [9],0.86%
same,Activity,A549 [18],1.6 - 1.64%
same,Activity,A549 [19],Active
same,Activity,A549 [10],5.62%
same,Activity,A549 [11],33.97 - 34%
same,Activity,A549 [20],Active
same,Activity,A549 [21],66.5 - 66.51%
same,inhibition,Tubulin (Homo sapiens),66.5%
same,Activity,A549 [22],75.9%
same,IC50,A549 [1],0.933 µM
same,Activity,A549 [12],1.38 - 1.4%
same,IC50,DU-145,1.5 µM
same,Activity,A549 [23],83.28%
same,Activity,A549 [24],2.68%
same,Activity,A549 [25],21.9 - 21.91%
COc1ccc(N/C=C\C(=O)c2c(-c3ccc(OC)cc3)nc3ccccn23)cc1,IC50,MCF7,16.5 µM
same,IC50,HeLa,19.9 µM
same,IC50,A549 [1],12.7 µM
same,IC50,DU-145,11.1 µM
O=C(/C=C\Nc1cnc2ccccc2c1)c1c(-c2ccccc2)nc2ccccn12,IC50,MCF7,5.17 µM
same,IC50,HeLa,3.08 µM
same,IC50,A549 [1],1.75 µM
same,IC50,DU-145,2.44 µM
